Experiments:
Acute toxicity in mice = settings: mouse, in vivo, po, acute toxicity, read-out: 50 DL
[1] = system: generalised trembling caused by an intraperitoneal injection of dl-5-hydroxytryptophane; assay: Test A: potentiation of generalised trembling caused by dl-5-hydroxytryptophane in the mouse; type: in vivo; settings: po; mouse, p.o.; dl-5-hydroxytryptophane 200 mg/kg i.p.; read-out: Test A 50 DE
Method: Potentiation in a mouse of generalised trembling caused by an intraperitoneal injection (200 mg/kg) of dl-5-hydroxytryptophane, according to the mode of operation described by GOURET C. and RAYNAUD G. in the J. Pharmacol. (PARIS), (1974), 5, 231.

[2] = system: pontogeniculo-occipital points (P.G.O.) caused by reserpine; assay: Test C: diminution in density of reserpine-induced pontogeniculo-occipital (P.G.O.) points in the cat; type: in vivo; settings: Felis catus, po, reserpine 0.5 mg/kg, read-out: Test C 50 DE
Method: Diminution in the density of pontogeniculo-occipital points (P.G.O.) caused by injecting a cat with 0.5 mg/kg of reserpine, according to the mode of operation described by COSTON A. and GOURET C. in J. Pharmacol. (PARIS), (1976), 7, 409.

[3] = system: ptosis observed one hour after an intravenous injection of reserpine; assay: Test B: antagonism of reserpine-induced ptosis in the mouse; type: in vivo; settings: po, 1 h, p.o., reserpine 2 mg/kg i.v., read-out: Test B 50 DE
Method: Antagonism in relation to ptosis observed one hour after an intravenous injection (2 mg/kg) of reserpine was given to a mouse, according to the mode of operation described by GOURET C. and THOMAS J. in J. Pharmacol. (PARIS), (1973), 4, 401.

SMILES | LD50 (Acute toxicity in mice) | ED50 [1] | ED50 [2] | ED50 [3]
CCOc1ccc(N2CC(CO)OC2=O)cc1 (centres unmarked) [compound 760037] | > 2000 mg/kg | 16 mg/kg | 5.4 mg/kg | 40 mg/kg
CSc1ccc(N2CC(CO)OC2=O)cc1 (centres unmarked) [compound 760082] | > 2000 mg/kg | 22 mg/kg | 8.4 mg/kg | 18 mg/kg
O=C1OC(CO)CN1c1ccc(OCc2ccccc2)cc1 (centres unmarked) [compound 760167, 5-hydroxymethyl 3-p-benzyloxyphenyl 2-oxazolidinone] | > 2000 mg/kg | 9.5 mg/kg | 15.2 mg/kg | 3.3 mg/kg
N#Cc1ccc(N2CC(CO)OC2=O)cc1 (centres unmarked) [compound 760271] | 1050 mg/kg | 20 mg/kg | 11 mg/kg | 11 mg/kg
CCCCOc1ccc(N2CC(CO)OC2=O)cc1 (centres unmarked) [compound 760304] | > 2000 mg/kg | 5 mg/kg | 6.1 mg/kg | 5 mg/kg

From patent US4150029A, “3-Aryl 2-oxazolidinones, their process of preparation and their therapeutical application” (Delalande S.A., priority 1976, dated 1979)
